# In patent US20150105252A1, “SUBSTITUTED PYRAZOLES AS HERBICIDES” (E I DU PONT DE NEMOURS AND COMPANY, priority 2013, published 2015):
# Key:
# [1] = system: crabgrass, large; assay: Test A postemergence; assay type: in vivo, Digitaria sanguinalis
# Outline: (§1)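 Greenhouse test in loam soil/sand blend; compounds formulated in non-phytotoxic solvent with surfactant, applied as preemergence directed soil spray or postemergence to plants 2–10 cm tall at one- to two-leaf stage. Injury rated visually versus untreated controls after approximately 10 days on a 0 (no effect) to 100 (complete control) scale.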
# [2] = system: pigweed; assay: Test C preemergence; assay type: in vivo, Amaranthus retroflexus
# Outline: (§2)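 Visual rating, 0–100 scale (0 no effect, 100 complete control), vs untreated controls after 13–15 d greenhouse. Pre: seeds in loam/sand, treated at sowing. Post: plants in peat-based mix, 1- to 4-leaf (2–18 cm). Solvent + surfactant formulation, non-phytotoxic.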
# [3] = system: soybean; assay: Test C postemergence; assay type: in vivo, Glycine max; conditions: for Soybean plant response rating / Plant response rating, Soybean: postemergence; for Soybean plant response rating: 62 g ai/ha, scale 0 to 100
# Outline: as §2
# [4] = system: foxtail, giant; assay: Test A postemergence; assay type: in vivo, Setaria faberii
# Outline: as §1
# [5] = system: lambsquarters; assay: Test C postemergence; assay type: in vivo, Chenopodium album; conditions: for Lambsquarters plant response rating: scale 0 to 100
# Outline: as §2
# [6] = system: corn; assay: Test C postemergence; assay type: in vivo, Zea mays; conditions: for Corn plant response rating: scale 0 to 100
# Outline: as §2
# [7] = system: ragweed; assay: Test C preemergence; assay type: in vivo, Ambrosia elation
# Outline: as §2
# [8] = system: corn; assay: Test A postemergence; assay type: in vivo, Zea mays
# Outline: as §1
# [9] = system: wheat; assay: Test A preemergence; assay type: in vivo, Triticum aestivum; conditions: preemergence
# Outline: as §1
# [10] = system: wheat; assay: Test C postemergence; assay type: in vivo, Triticum aestivum; conditions: for Wheat plant response rating / Plant response rating, Wheat: postemergence; for Wheat plant response rating: 62 g ai/ha, scale 0 to 100
# Outline: as §2
# [11] = system: morningglory; assay: Test A postemergence; assay type: in vivo, Ipomoea spp.
# Outline: as §1
# [12] = system: ragweed; assay: Test C postemergence; assay type: in vivo, Ambrosia elation; conditions: for Ragweed plant response rating / Plant response rating, Ragweed: postemergence; for Ragweed plant response rating: 62 g ai/ha, scale 0 to 100
# Outline: as §2
# [13] = system: velvetleaf; assay: Test A postemergence; assay type: in vivo, Abutilon theophrasti
# Outline: as §1
# [14] = system: soybean; assay: Test C preemergence; assay type: in vivo, Glycine max
# Outline: as §2
# [15] = system: velvetleaf; assay: Test C postemergence; assay type: in vivo, Abutilon theophrasti; conditions: for Velvetleaf plant response rating / Plant response rating, Velvetleaf: postemergence; for Velvetleaf plant response rating: 62 g ai/ha, scale 0 to 100
# Outline: as §2
# [16] = system: waterhemp; assay: Test C postemergence; assay type: in vivo, Amaranthus rudis; conditions: for Waterhemp plant response rating / Plant response rating, Waterhemp: postemergence; for Waterhemp plant response rating: 62 g ai/ha, scale 0 to 100
# Source text: Seeds of plant species selected from blackgrass (Alopecurus myosuroides), ryegrass, Italian (Italian ryegrass, Lolium multiflorum), wheat (winter wheat, Triticum aestivum), galium (catchweed bedstraw, Galium aparine), corn (Zea mays), crabgrass, large (large crabgrass, Digitaria sanguinalis), foxtail, giant (giant foxtail, Setaria faberii), johnsongrass (Sorghum halepense), lambsquarters (Chenopodium album), morningglory (Ipomoea coccinea), nutsedge, yellow (yellow nutsedge, Cyperus esculentus), pigweed (redroot pigweed, Amaranthus retroflexus), ragweed (common ragweed, Ambrosia elation), soybean (Glycine max), barnyardgrass (Echinochloa crus-galli), oilseed rape (Brassica napus), waterhemp (common waterhemp, Amaranthus rudis), oat, wild (wild oat, Avena fatua), kochia (Kochia scoparia), Surinam grass (Brachiaria decumbens), foxtail, green (green foxtail, Setaria viridis), goosegrass (Eleusine indica), bromegrass, downy (downy bromegrass, Bromus tectorum), nightshade (eastern black nightshade, Solanum ptycanthum), cocklebur (common cocklebur, Xanthium strumarium), cupgrass, woolly (woolly cupgrass, Eriochloa villosa), bermudagrass (Cynodon dactylon), sunflower, (common oilseed sunflower, Helianthus annuus), Russian thistle (Salsola kali), and velvetleaf (Abutilon theophrasti) were planted into a blend of loam soil and sand and treated preemergence with test chemicals formulated in a non-phytotoxic solvent mixture which included a surfactant.
# At the same time, plants selected from these crop and weed species and also chickweed (common chickweed, Stellaria media), canarygrass (littleseed canarygrass, Phalaris minor), and deadnettle (henbit deadnettle, Lamium amplexicaule), were planted in pots containing Redi-Earth® planting medium (Scotts Company, 14111 Scottslawn Road, Marysville, Ohio 43041) comprising spaghnum peat moss, vermiculite, wetting agent and starter nutrients and treated with postemergence applications of test chemicals formulated in the same manner. Plants ranged in height from 2 to 18 cm (1- to 4-leaf stage) for postemergence treatments. Treated plants and controls were maintained in a greenhouse for 13 to 15 days, after which time all species were compared to controls and visually evaluated. Plant response ratings, summarized in Table C, are based on a scale of 0 to 100 where 0 is no effect and 100 is complete control. A dash (-) response means no test result.
# [17] = Postemergence, 500 g ai/ha, visual rating after approx. 10 days, 0 to 100 scale (0 no effect, 100 complete control)
# [18] = postemergence, 125 g ai/ha, about 10 days, visual rating on 0 to 100 scale (0 no effect, 100 complete control)
# [19] = preemergence, 31 g ai/ha, visual rating, scale 0 to 100 (0 no effect, 100 complete control), 13 to 15 days
# [20] = preemergence, 62 g ai/ha, scale 0 to 100 (0 no effect, 100 complete control), 13 to 15 days
# [21] = preemergence, 125 g ai/ha, scale 0 to 100, 0 is no effect, 100 is complete control
# [22] = Postemergence, 31 g ai/ha, visually evaluated after 13 to 15 days
# [23] = 250 g ai/ha, scale 0 to 100 (0 no effect, 100 complete control)
# [24] = 125 g ai/ha, scale 0 to 100, 0 no effect, 100 complete control
# [25] = postemergence, 250 g ai/ha, scale 0 to 100 (0 no effect, 100 complete control)
# [26] = postemergence, 125 g ai/ha, scale 0 to 100, 0 no effect, 100 complete control
# [27] = 125 g ai/ha, visual injury, 0 to 100 scale, approx. 10 days
# [28] = 500 g ai/ha, visual injury after approx. 10 days, 0 to 100 scale (0 no effect, 100 complete control)
# [29] = Preemergence, 16 g ai/ha, scale 0 to 100
# [30] = preemergence, 31 g ai/ha, scale 0 to 100 (0 no effect, 100 complete control), 13 to 15 days
# [31] = preemergence, 62 g ai/ha, 13 to 15 days, scale 0 to 100, 0 = no effect, 100 = complete control
smiles,measurement,setting,value
CCc1cc(-c2ccc(C(F)(F)F)cc2)nn1Cc1ccnc(C(F)(F)F)c1 [Compound 110],"Crabgrass, Large plant response rating",[1]; [17],100
same,"Crabgrass, Large plant response rating",[1]; [18],70
same,"Plant response rating (scale of 0 to 100), Pigweed","[2]; Preemergence, 250 g ai/ha",100
same,Pigweed plant response rating,[2]; [19],95
same,Pigweed plant response rating,[2]; [20],100
same,Pigweed plant response rating,[2]; [21],100
same,"Plant response rating (scale of 0 to 100 where 0 is no effect and 100 is complete control), Soybean",[3]; [22],35
same,Soybean plant response rating,[3],55
same,"Plant response rating, Soybean",[3]; [23],85
same,"Plant response rating, Soybean",[3]; [24],70
same,"Foxtail, Giant plant response rating",[4]; [17],100
same,"Foxtail, Giant plant response rating",[4]; [18],90
same,"Plant response rating (scale of 0 to 100 where 0 is no effect and 100 is complete control), Lambsquarters",[5]; [22],40
same,Lambsquarters plant response rating,"[5]; postemergence, 62 g ai/ha",75
same,"Plant response rating, Lambsquarters",[5]; [25],98
same,"Plant response rating, Lambsquarters",[5]; [26],85
same,Corn plant response rating,"[6]; postemergence, 62 g ai/ha",15
same,"Plant response rating, Corn",[6]; [25],25
same,"Plant response rating, Corn",[6]; [26],25
same,"Plant response rating (scale of 0 to 100), Ragweed","[7]; Preemergence, 250 g ai/ha",75
same,Ragweed plant response rating,[7]; [19],35
same,Ragweed plant response rating,[7]; [20],35
same,Ragweed plant response rating,[7]; [21],60
same,Corn plant response rating,[8]; [17],90
same,Corn plant response rating,[8]; [18],80
same,Wheat plant response rating,[9]; [27],80
same,Wheat plant response rating,[9]; [28],100
same,"Plant response rating (scale of 0 to 100 where 0 is no effect and 100 is complete control), Wheat",[10]; [22],5
same,Wheat plant response rating,[10],5
same,"Plant response rating, Wheat",[10]; [23],5
same,"Plant response rating, Wheat",[10]; [24],5
same,Morningglory plant response rating,[11]; [17],100
same,Morningglory plant response rating,[11]; [18],100
same,"Plant response rating (scale of 0 to 100 where 0 is no effect and 100 is complete control), Ragweed",[12]; [22],50
same,Ragweed plant response rating,[12],80
same,"Plant response rating, Ragweed",[12]; [23],80
same,"Plant response rating, Ragweed",[12]; [24],80
same,Velvetleaf plant response rating,[13]; [17],100
same,Velvetleaf plant response rating,[13]; [18],90
same,"Plant response rating (scale of 0 to 100), Soybean","[14]; Preemergence, 250 g ai/ha",20
same,Soybean plant response rating,[14]; [19],10
same,Soybean plant response rating,[14]; [21],15
same,"Plant response rating (scale of 0 to 100 where 0 is no effect and 100 is complete control), Velvetleaf",[15]; [22],30
same,Velvetleaf plant response rating,[15],50
same,"Plant response rating, Velvetleaf",[15]; [23],75
same,"Plant response rating, Velvetleaf",[15]; [24],70
same,"Plant response rating (scale of 0 to 100 where 0 is no effect and 100 is complete control), Waterhemp",[16]; [22],100
same,Waterhemp plant response rating,[16],100
same,"Plant response rating, Waterhemp",[16]; [23],100
same,"Plant response rating, Waterhemp",[16]; [24],100
CCCNC(=O)c1cc(CC)n(Cc2ccnc(C(F)(F)F)c2)n1 [Compound 75],"Crabgrass, Large plant response rating",[1]; [17],100
same,"Crabgrass, Large plant response rating",[1]; [18],100
same,"Plant response rating, Pigweed",[2]; [29],85
same,Pigweed plant response rating,[2]; [30],100
same,"Plant response rating, Pigweed",[2]; [31],100
same,Pigweed plant response rating,[2]; [21],100
same,"Plant response rating (scale of 0 to 100), Soybean","[3]; Postemergence, 16 g ai/ha",40
same,Soybean plant response rating,[3],75
same,"Plant response rating, Soybean",[3]; [24],90
same,"Foxtail, Giant plant response rating",[4]; [17],100
same,"Foxtail, Giant plant response rating",[4]; [18],90
same,"Plant response rating (scale of 0 to 100), Lambsquarters","[5]; Postemergence, 16 g ai/ha",70
same,Lambsquarters plant response rating,"[5]; Postemergence, 31 g ai/ha",70
same,Lambsquarters plant response rating,"[5]; postemergence, 62 g ai/ha",85
same,"Plant response rating, Lambsquarters",[5]; [26],90
same,"Plant response rating (scale of 0 to 100), Corn","[6]; Postemergence, 16 g ai/ha",0
same,Corn plant response rating,"[6]; Postemergence, 31 g ai/ha",5
same,Corn plant response rating,"[6]; postemergence, 62 g ai/ha",20
same,"Plant response rating, Corn",[6]; [26],40
same,"Plant response rating, Ragweed",[7]; [29],70
same,Ragweed plant response rating,[7]; [30],90
same,"Plant response rating, Ragweed",[7]; [31],90
same,Ragweed plant response rating,[7]; [21],100
same,Corn plant response rating,[8]; [17],90
same,Corn plant response rating,[8]; [18],80
same,Wheat plant response rating,[9]; [27],80
same,Wheat plant response rating,[9]; [28],100
same,"Plant response rating (scale of 0 to 100), Wheat","[10]; Postemergence, 16 g ai/ha",0
same,Wheat plant response rating,[10],5
same,"Plant response rating, Wheat",[10]; [24],5
same,Morningglory plant response rating,[11]; [17],100
same,Morningglory plant response rating,[11]; [18],100
same,"Plant response rating (scale of 0 to 100), Ragweed","[12]; Postemergence, 16 g ai/ha",40
same,Ragweed plant response rating,[12],70
same,"Plant response rating, Ragweed",[12]; [24],85
same,Velvetleaf plant response rating,[13]; [17],100
same,Velvetleaf plant response rating,[13]; [18],90
same,"Plant response rating, Soybean",[14]; [29],35
same,Soybean plant response rating,[14]; [30],85
same,"Plant response rating, Soybean",[14]; [31],98
same,Soybean plant response rating,[14]; [21],98
same,"Plant response rating (scale of 0 to 100), Velvetleaf","[15]; Postemergence, 16 g ai/ha",25
same,Velvetleaf plant response rating,[15],35
same,"Plant response rating, Velvetleaf",[15]; [24],40
same,Waterhemp plant response rating,[16],45
same,"Plant response rating, Waterhemp",[16]; [24],75
